Assay results taken from ChEMBL document CHEMBL4393690, “Acylated sulfonamide adenosines as potent inhibitors of the adenylate-forming enzyme superfamily” (Eur J Med Chem, 2019).

Tests used:
[1] = biological target: Serine--tRNA ligase (Escherichia coli (strain K12)) (UniProt P0A8L1); assay: (§1) Inhibition of recombinant Escherichia coli BL21(DE3) seryl-tRNA synthetase expressed in Escherichia coli Rosetta 2 (DE3) assessed as reduction in tRNA aminoacylation at 2 uM preincubated for 10 mins in presence of [14C]-isoleucin and tRNA followed by ATP addition and measured after 6 mins by scintillation counting method
Isoleucine--tRNA ligase = Isoleucine--tRNA ligase (Escherichia coli K-12, UniProt P00956); assay: as §1, with “isoleucyl-tRNA” for “seryl-tRNA”, “aminoacylation” for “aminoacylation at 2 uM”
Isoleucine--tRNA ligase, sequence (P00956 whole entry): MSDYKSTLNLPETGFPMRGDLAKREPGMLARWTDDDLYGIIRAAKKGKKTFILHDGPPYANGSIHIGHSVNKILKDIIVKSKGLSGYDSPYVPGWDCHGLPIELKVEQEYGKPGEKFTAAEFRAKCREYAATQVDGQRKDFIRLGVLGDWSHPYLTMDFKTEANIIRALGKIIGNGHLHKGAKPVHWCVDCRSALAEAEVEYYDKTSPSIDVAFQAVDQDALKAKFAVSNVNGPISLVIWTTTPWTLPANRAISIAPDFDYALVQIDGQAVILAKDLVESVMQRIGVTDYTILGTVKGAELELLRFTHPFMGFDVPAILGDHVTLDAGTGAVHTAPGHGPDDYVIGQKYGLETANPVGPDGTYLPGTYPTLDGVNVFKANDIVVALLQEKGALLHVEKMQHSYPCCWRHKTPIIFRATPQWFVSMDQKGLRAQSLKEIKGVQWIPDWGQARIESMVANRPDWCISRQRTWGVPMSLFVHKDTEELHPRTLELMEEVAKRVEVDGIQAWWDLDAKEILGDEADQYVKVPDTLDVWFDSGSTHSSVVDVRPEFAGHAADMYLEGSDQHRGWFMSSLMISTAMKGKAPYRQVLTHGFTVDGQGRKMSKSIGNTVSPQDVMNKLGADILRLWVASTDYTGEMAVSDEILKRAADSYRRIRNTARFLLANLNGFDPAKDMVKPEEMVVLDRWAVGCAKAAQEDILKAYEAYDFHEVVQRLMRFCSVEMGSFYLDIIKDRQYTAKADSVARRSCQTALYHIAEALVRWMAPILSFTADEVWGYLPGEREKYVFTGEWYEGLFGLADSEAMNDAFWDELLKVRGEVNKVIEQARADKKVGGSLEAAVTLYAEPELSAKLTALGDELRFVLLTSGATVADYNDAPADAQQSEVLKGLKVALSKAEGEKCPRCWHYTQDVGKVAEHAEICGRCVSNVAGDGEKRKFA

Serine--tRNA ligase (Escherichia coli (strain K12)), sequence (P0A8L1 whole entry, looked up): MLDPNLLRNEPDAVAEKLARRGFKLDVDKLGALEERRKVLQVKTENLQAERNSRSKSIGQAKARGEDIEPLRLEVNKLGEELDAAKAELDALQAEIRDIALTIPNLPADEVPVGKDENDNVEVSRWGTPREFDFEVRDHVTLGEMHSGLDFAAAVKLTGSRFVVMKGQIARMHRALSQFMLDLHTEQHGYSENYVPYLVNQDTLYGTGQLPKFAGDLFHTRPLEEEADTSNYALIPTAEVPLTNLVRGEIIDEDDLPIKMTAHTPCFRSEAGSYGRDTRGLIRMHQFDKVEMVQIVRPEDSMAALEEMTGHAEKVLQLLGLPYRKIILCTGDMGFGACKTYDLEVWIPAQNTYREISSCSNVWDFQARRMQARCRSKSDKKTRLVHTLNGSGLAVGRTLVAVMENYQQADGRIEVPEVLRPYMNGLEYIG

SMILES | inhibition [1] [%] | IC50 (Isoleucine--tRNA ligase) [nM] | Ki (Isoleucine--tRNA ligase; read-out: Ki(app)) [nM]
Nc1ncnc2c1ncn2[C@@H]1O[C@H](CCS(=O)(=O)NC(=O)[C@@H](N)CO)[C@@H](O)[C@H]1O | 30 |  | 
CC[C@H](C)[C@H](N)C(=O)NS(=O)(=O)CC[C@H]1O[C@@H](n2cnc3c(N)ncnc32)[C@H](O)[C@@H]1O |  | 6.8 | 1.2
